Measured values published in patent US20100184684A1, “ANTIBACTERIAL AND ANTIFUNGAL PEPTIDES” (C3 JIAN, INC., priority 2009, published 2010).
Converted amounts (≈) assume the structure as drawn. Where two headings read alike, the source gives them in different places. Peptide text beside a SMILES is read from it.

Assays:
B. subtilis = type: cell-based, Bacillus subtilis
Description: (§1) In certain embodiments the MIC assays are performed as described herein in the Examples. For each organism, the media and growth conditions utilized is detailed in Table 8.
(§2) In certain embodiments the MIC assays are performed as follows: For each organism, the media and growth conditions utilized is detailed in Table 8.

A. niger = type: cell-based, Aspergillus niger
Description: as §1, §2

S. epidermidis = type: cell-based
Description: as §1, §2

T. rubrum = type: cell-based, Trichophyton rubrum
Description: as §1, §2

C. albicans = type: cell-based, Candida albicans
Description: as §1, §2

C. difficile = type: cell-based, Clostridium difficile
Description: as §1, §2

P. aeruginosa = type: cell-based, Pseudomonas aeruginosa; settings: P. aeruginosa; MH, 37° C., aerobic, 10^5 CFU/ml
Description: as §1, §2

MRSA = type: cell-based, Staphylococcus aureus
Description: as §1, §2

S. mutans = type: cell-based, Streptococcus mutans
Description: as §1, §2

`CSCC[C@H](NC(=O)[C@H](CCCNC(=N)N)NC(=O)[C@H](CCCNC(=N)N)NC(=O)[C@H](CC(C)C)NC(=O)[C@H](CCCNC(=N)N)NC(=O)[C@H](CCC(=O)O)NC(=O)[C@@H](NC(=O)[C@H](CS)NC(=O)CNC(=O)[C@H](CCCNC(=N)N)NC(=O)[C@@H](N)CCCNC(=N)N)[C@@H](C)O)C(=O)N[C@@H](C)C(=O)N[C@@H](CCCNC(=N)N)C(=O)N[C@@H](CCCNC(=N)N)C(=O)N[C@@H](CC(N)=O)C(=O)N[C@@H](C)C(=O)N[C@@H](Cc1c[nH]c2ccccc12)C(=O)N[C@@H](CC(=O)O)C(=O)N[C@@H](CC(C)C)C(=O)N[C@@H](Cc1ccc(O)cc1)C(=O)N[C@@H](C)C(=O)N[C@@H](CCC(=O)O)C(=O)N[C@@H](Cc1c[nH]cn1)C(=O)N[C@@H](Cc1ccccc1)C(=O)N[C@@H](Cc1ccc(O)cc1)C(=O)O` [PF-148] (H-RRGCTERLRRMARRNAWDLYAEHFY-OH; N-terminus and C-terminus assumed) was tested. Which MIC (B. subtilis) did it give?
Its MIC is 50 µM (≈ 161 µg/mL).

And the MIC (A. niger)?
The MIC was 50 µM (≈ 161 µg/mL).

Which results are given for `CC[C@H](C)[C@H](NC(=O)[C@H](CCCCN)NC(=O)[C@H](C)NC(=O)[C@H](Cc1ccccc1)NC(=O)[C@@H](NC(=O)[C@H](C)NC(=O)[C@H](CC(C)C)NC(=O)[C@H](CO)NC(=O)[C@@H](N)CC(C)C)[C@@H](C)O)C(=O)N[C@@H](Cc1ccccc1)C(=O)N[C@@H](CCSC)C(=O)N[C@H](C(=O)N[C@@H](CCCNC(=N)N)C(=O)N[C@@H](CO)C(=O)N[C@@H](CC(N)=O)C(=O)N[C@@H](Cc1c[nH]c2ccccc12)C(=O)N[C@@H](CO)C(=O)N[C@@H](CC(C)C)C(=O)N[C@@H](CCCCN)C(=O)N[C@@H](CCCNC(=N)N)C(=O)N[C@@H](Cc1ccccc1)C(=O)N[C@@H](CC(N)=O)C(=O)N[C@@H](CCCNC(=N)N)C(=O)N[C@@H](CC(C)C)C(=O)O)[C@@H](C)O` [PF-278] (H-LSLATFAKIFMTRSNWSLKRFNRL-OH; N-terminus and C-terminus assumed)?
MIC (S. epidermidis): 50 µM; MIC (T. rubrum): 50 µM; MIC (C. albicans): 50 µM

How did the MIC (S. epidermidis) turn out when `CC[C@H](C)[C@H](NC(=O)[C@H](CO)NC(=O)[C@H](CC(N)=O)NC(=O)[C@H](CCCNC(=N)N)NC(=O)[C@H](CC(N)=O)NC(=O)[C@H](CC(C)C)NC(=O)[C@H](CCCCN)NC(=O)[C@H](CCCCN)NC(=O)[C@H](CCCCN)NC(=O)[C@@H](NC(=O)[C@@H]1CCCN1C(=O)[C@H](CO)NC(=O)[C@H](CCCNC(=N)N)NC(=O)[C@@H](NC(=O)[C@H](CCCNC(=N)N)NC(=O)[C@@H](NC(=O)[C@@H](N)CCSC)[C@@H](C)CC)[C@@H](C)CC)[C@@H](C)O)C(=O)N[C@@H](CO)C(=O)N[C@@H](CC(=O)O)C(=O)N[C@@H](Cc1c[nH]c2ccccc12)C(=O)N[C@@H](CCCCN)C(=O)N[C@@H](CO)C(=O)N[C@@H](CC(N)=O)C(=O)N[C@H](C(=O)N[C@@H](CO)C(=O)NCC(=O)N[C@@H](CCCNC(=N)N)C(=O)N[C@@H](Cc1ccccc1)C(=O)N[C@@H](Cc1ccccc1)C(=O)N[C@@H](Cc1ccc(O)cc1)C(=O)O)[C@@H](C)O` [PF-283] (H-MIRIRSPTKKKLNRNSISDWKSNTSGRFFY-OH; N-terminus and C-terminus assumed) was run?
The MIC was 50 µM (≈ 182 µg/mL).

And the MIC (B. subtilis)?
The MIC was 50 µM (≈ 182 µg/mL).

What about the MIC (T. rubrum) of the same molecule?
Its MIC is 50 µM (≈ 182 µg/mL).

Which MIC (B. subtilis) does the source give for `CC[C@H](C)[C@H](NC(=O)[C@H](Cc1ccccc1)NC(=O)[C@@H](NC(=O)[C@H](Cc1ccccc1)NC(=O)[C@H](CC(C)C)NC(=O)[C@H](CC(=O)O)NC(=O)[C@@H](NC(=O)[C@H](CS)NC(=O)[C@@H](NC(=O)[C@H](CCCNC(=N)N)NC(=O)[C@H](CC(C)C)NC(=O)[C@@H](NC(=O)[C@@H](N)CC(C)C)C(C)C)[C@@H](C)CC)[C@@H](C)O)[C@@H](C)O)C(=O)N[C@@H](CCCCN)C(=O)N[C@@H](Cc1c[nH]c2ccccc12)C(=O)N[C@H](C(=O)N[C@H](C(=O)N[C@@H](CCCCN)C(=O)N[C@@H](CCC(N)=O)C(=O)N[C@@H](CCCNC(=N)N)C(=O)N[C@@H](CCCCN)C(=O)N[C@@H](CO)C(=O)O)[C@@H](C)CC)[C@@H](C)O` [PF-497] (H-LVLRICTDLFTFIKWTIKQRKS-OH; N-terminus and C-terminus assumed) here?
The MIC was 50 µM (≈ 136 µg/mL).

`CC[C@H](C)[C@H](NC(=O)[C@H](CCCCN)NC(=O)CNC(=O)[C@H](CC(C)C)NC(=O)[C@H](CC(N)=O)NC(=O)[C@@H](NC(=O)[C@H](CCC(=O)O)NC(=O)[C@H](CC(C)C)NC(=O)[C@H](Cc1c[nH]c2ccccc12)NC(=O)[C@H](CC(=O)O)NC(=O)[C@@H](NC(=O)[C@H](CC(C)C)NC(=O)[C@H](CCC(=O)O)NC(=O)[C@@H](N)Cc1ccccc1)C(C)C)[C@@H](C)O)C(=O)N[C@@H](CC(C)C)C(=O)N[C@@H](CCCCN)C(=O)N[C@@H](CO)C(=O)N[C@@H](CCCCN)C(=O)N[C@@H](CO)C(=O)N[C@@H](C)C(=O)O` [PF-522] (H-FELVDWLETNLGKILKSKSA-OH; N-terminus and C-terminus assumed) was tested. Which MIC (C. difficile) did it give?
The MIC was 25 µM (≈ 57.3 µg/mL).

With `CC[C@H](C)[C@H](NC(=O)[C@H](CCCNC(=N)N)NC(=O)[C@@H](NC(=O)[C@H](CCCCN)NC(=O)[C@H](CCCCN)NC(=O)[C@H](CC(C)C)NC(=O)[C@H](CC(C)C)NC(=O)[C@H](CCCCN)NC(=O)[C@H](CCCNC(=N)N)NC(=O)[C@H](Cc1c[nH]cn1)NC(=O)[C@H](CCCCN)NC(=O)[C@H](CCCCN)NC(=O)[C@H](CCCCN)NC(=O)[C@H](C)NC(=O)[C@H](CCSC)NC(=O)[C@H](CCCNC(=N)N)NC(=O)[C@H](CCCCN)NC(=O)[C@H](CCCNC(=N)N)NC(=O)[C@H](CCCNC(=N)N)NC(=O)[C@H](CCCCN)NC(=O)[C@H](CCCCN)NC(=O)[C@@H](NC(=O)[C@@H](NC(=O)[C@H](CO)NC(=O)CN)C(C)C)[C@@H](C)CC)[C@@H](C)O)C(=O)N[C@@H](CCC(N)=O)C(=O)N[C@@H](CCCNC(=N)N)C(=O)N[C@@H](CCCNC(=N)N)C(=O)N[C@@H](CCCNC(=N)N)C(=O)N[C@@H](C)C(=O)NCC(=O)N[C@@H](CCCCN)C(=O)O` [PF-527] (H-GSVIKKRRKRMAKKKHRKLLKKTRIQRRRAGK-OH; N-terminus and C-terminus assumed) as the molecule, how does the MIC (S. epidermidis; S. epidermidis, BHI supplemented with 0.25% glucose, 37° C., aerobic, 10^5 CFU/ml) read?
The MIC was 25 µM (≈ 98.5 µg/mL).

And the MIC (T. rubrum; T. rubrum, Potato Dextrose Agar, 25° C., aerobic, 10^5 CFU/ml)?
The MIC was 25 µM (≈ 98.5 µg/mL).

What about the MIC (A. niger; A. niger, Potato Dextrose Agar, 25° C., aerobic, 10^5 CFU/ml) of the same molecule?
Its MIC is 50 µM (≈ 197 µg/mL).

And the MIC (P. aeruginosa)?
Its MIC is 50 µM (≈ 197 µg/mL).

What about the MIC (MRSA; MRSA, BHI supplemented with 2% glucose, 37° C., aerobic, 10^5 CFU/ml) of the same molecule?
Its MIC is 50 µM (≈ 197 µg/mL).

How did the MIC (B. subtilis) turn out when `CC[C@H](C)[C@H](NC(=O)[C@H](CCCNC(=N)N)NC(=O)[C@H](CCCNC(=N)N)NC(=O)[C@H](CCCNC(=N)N)NC(=O)[C@@H](NC(=O)[C@H](CCSC)NC(=O)[C@H](CC(=O)O)NC(=O)[C@H](C)NC(=O)[C@H](CCSC)NC(=O)[C@H](C)NC(=O)[C@@H](NC(=O)[C@H](CC(C)C)NC(=O)[C@H](CCCCN)NC(=O)[C@H](CO)NC(=O)[C@H](CCC(=O)O)NC(=O)[C@@H](N)CCCNC(=N)N)[C@@H](C)CC)[C@@H](C)CC)C(=O)O` [PF-545] (H-RESKLIAMADMIRRRI-OH; N-terminus and C-terminus assumed) was run?
Its MIC is 25 µM (≈ 49 µg/mL).

What about the MIC (A. niger) of the same molecule?
Its MIC is 50 µM (≈ 98 µg/mL).

And the MIC (MRSA)?
Its MIC is 50 µM (≈ 98 µg/mL).

How did the MIC (B. subtilis) turn out when `CC(C)[C@H](NC(=O)[C@H](CCCCN)NC(=O)[C@H](Cc1c[nH]c2ccccc12)NC(=O)CNC(=O)[C@@H](NC(=O)[C@H](CC(=O)O)NC(=O)[C@H](CO)NC(=O)[C@H](Cc1c[nH]cn1)NC(=O)CNC(=O)[C@@H]1CCCN1C(=O)[C@@H](NC(=O)[C@H](CCCNC(=N)N)NC(=O)[C@H](CO)NC(=O)[C@@H](N)Cc1c[nH]c2ccccc12)C(C)C)[C@@H](C)O)C(=O)N[C@@H](Cc1c[nH]c2ccccc12)C(=O)N[C@@H](Cc1c[nH]cn1)C(=O)N[C@@H](CCCNC(=N)N)C(=O)N[C@@H](Cc1c[nH]c2ccccc12)C(=O)O` [PF-547] (H-WSRVPGHSDTGWKVWHRW-OH; N-terminus and C-terminus assumed) was run?
Its MIC is 25 µM (≈ 56.9 µg/mL).

What about the MIC (S. mutans) of the same molecule?
The MIC was 12.5 µM (≈ 28.5 µg/mL).

What about the MIC (T. rubrum) of the same molecule?
The MIC was 25 µM (≈ 56.9 µg/mL).

With `CC[C@H](C)[C@H](NC(=O)[C@H](CCCNC(=N)N)NC(=O)[C@@H]1CCCN1C(=O)[C@H](CCC(=O)O)NC(=O)[C@H](CC(C)C)NC(=O)[C@@H]1CCCN1C(=O)[C@H](CC(=O)O)NC(=O)[C@@H](N)CC(C)C)C(=O)N[C@@H](C)C(=O)N1CCC[C@H]1C(=O)N1CCC[C@H]1C(=O)NCC(=O)N[C@@H](CC(=O)O)C(=O)N[C@@H](CCCNC(=N)N)C(=O)N[C@@H](CO)C(=O)N[C@@H](Cc1c[nH]cn1)C(=O)N[C@@H](CCC(N)=O)C(=O)NCC(=O)N[C@@H](C)C(=O)N1CCC[C@H]1C(=O)N[C@@H](C)C(=O)N[C@@H](CS)C(=O)N[C@@H](Cc1c[nH]cn1)C(=O)N[C@@H](CCCNC(=N)N)C(=O)N[C@@H](CC(=O)O)C(=O)N1CCC[C@H]1C(=O)N[C@@H](CC(C)C)C(=O)N[C@@H](CCCNC(=N)N)C(=O)NCC(=O)N[C@@H](CCCNC(=N)N)C(=O)N[C@@H](CO)C(=O)N[C@@H](C)C(=O)N[C@@H](CCCNC(=N)N)C(=O)N[C@@H](CC(=O)O)C(=O)N[C@@H](C)C(=O)N[C@@H](CCC(=O)O)C(=O)N[C@@H](CCCNC(=N)N)C(=O)O` [PF-C019] (H-LDPLEPRIAPPGDRSHQGAPACHRDPLRGRSARDAER-OH; N-terminus and C-terminus assumed) as the molecule, how does the MIC (S. mutans) read?
Its MIC is 25 µM (≈ 102 µg/mL).

And the MIC (T. rubrum)?
Its MIC is 50 µM (≈ 204 µg/mL).

What about the MIC (A. niger) of the same molecule?
The MIC was 50 µM (≈ 204 µg/mL).

How did the MIC (C. albicans) turn out when `CC(C)[C@H](NC(=O)[C@@H](N)Cc1ccc(O)cc1)C(=O)N[C@@H](CC(N)=O)C(=O)N[C@@H](Cc1ccc(O)cc1)C(=O)N[C@@H](CC(N)=O)C(=O)N[C@@H](CCC(N)=O)C(=O)N[C@@H](CO)C(=O)N[C@@H](Cc1ccccc1)C(=O)N[C@@H](CC(N)=O)C(=O)N[C@@H](CO)C(=O)NCC(=O)N[C@@H](Cc1c[nH]c2ccccc12)C(=O)O` [PF-C220] (H-YVNYNQSFNSGW-OH; N-terminus and C-terminus assumed) was run?
The MIC was 50 µM (≈ 73.9 µg/mL).
